This experiment has as its target human F508del-CFTR (Homo sapiens, UniProt P13569, DEL508-508). As to the kind of experiment: F508del-CFTR cell surface expression (corrector activity), DiscoveRx ß-galactosidase complementation chemiluminescence assay in recombinant U2OS cell line.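 As to all read-outs here: U2OS cells co-expressing ProLink-tagged F508del-CFTR and a membrane-anchored enzyme acceptor, where more surface CFTR restores β-galactosidase activity measured by chemiluminescence.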 The conditions noted are these: for EC50: EC50, F508del-CFTR cell surface expression, U2OS cells, 16h compound incubation, geomean values; for Emax: U2OS, in relation to Emax of corrector lumacaftor (=100%), arithmetic mean values.

The text below walks through data of US20240208992A1, “MACROCYCLES AS CFTR MODULATORS” (Idorsia Pharmaceuticals Ltd, priority 2021, published 2024).

Sequence of human F508del-CFTR (P13569 with tags, fused parts or gaps DEL508-508): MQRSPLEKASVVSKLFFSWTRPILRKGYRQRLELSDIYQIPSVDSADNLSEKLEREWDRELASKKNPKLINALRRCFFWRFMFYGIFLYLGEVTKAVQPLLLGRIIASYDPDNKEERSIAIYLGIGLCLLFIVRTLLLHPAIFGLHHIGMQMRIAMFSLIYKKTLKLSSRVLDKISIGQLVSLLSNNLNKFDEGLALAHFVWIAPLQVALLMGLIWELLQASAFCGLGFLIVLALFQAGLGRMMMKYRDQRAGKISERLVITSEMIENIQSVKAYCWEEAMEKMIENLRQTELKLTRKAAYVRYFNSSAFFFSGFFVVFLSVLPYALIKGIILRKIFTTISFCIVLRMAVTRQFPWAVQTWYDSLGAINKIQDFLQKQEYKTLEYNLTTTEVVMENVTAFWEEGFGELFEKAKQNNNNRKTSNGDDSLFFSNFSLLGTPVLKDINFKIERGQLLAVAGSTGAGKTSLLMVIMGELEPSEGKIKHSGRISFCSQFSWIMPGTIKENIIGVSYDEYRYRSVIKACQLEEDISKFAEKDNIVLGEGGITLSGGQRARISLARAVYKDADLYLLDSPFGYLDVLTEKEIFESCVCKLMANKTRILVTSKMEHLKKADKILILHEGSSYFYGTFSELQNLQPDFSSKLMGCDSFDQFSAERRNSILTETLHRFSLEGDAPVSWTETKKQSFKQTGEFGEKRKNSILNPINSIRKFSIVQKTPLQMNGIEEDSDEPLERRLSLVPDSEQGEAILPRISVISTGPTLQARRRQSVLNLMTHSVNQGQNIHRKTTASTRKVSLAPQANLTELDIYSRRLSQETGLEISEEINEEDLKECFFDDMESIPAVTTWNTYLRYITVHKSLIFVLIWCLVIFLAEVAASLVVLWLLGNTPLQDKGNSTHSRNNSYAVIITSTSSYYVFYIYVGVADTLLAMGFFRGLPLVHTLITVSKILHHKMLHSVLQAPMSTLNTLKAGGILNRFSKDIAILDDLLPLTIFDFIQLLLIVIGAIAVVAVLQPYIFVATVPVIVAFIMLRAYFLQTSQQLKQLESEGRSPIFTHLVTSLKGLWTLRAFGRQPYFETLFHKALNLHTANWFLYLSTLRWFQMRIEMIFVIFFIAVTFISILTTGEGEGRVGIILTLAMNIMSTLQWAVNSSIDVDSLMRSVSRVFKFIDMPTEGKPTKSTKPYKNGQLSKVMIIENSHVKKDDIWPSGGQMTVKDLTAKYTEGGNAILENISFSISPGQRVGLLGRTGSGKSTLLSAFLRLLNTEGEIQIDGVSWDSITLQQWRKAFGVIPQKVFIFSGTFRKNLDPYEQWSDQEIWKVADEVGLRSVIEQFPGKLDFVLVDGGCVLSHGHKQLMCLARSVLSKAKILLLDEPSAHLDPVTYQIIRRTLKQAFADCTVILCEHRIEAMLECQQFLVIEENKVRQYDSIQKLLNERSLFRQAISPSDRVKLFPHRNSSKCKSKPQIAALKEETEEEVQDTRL

A word on the EC50: it is the concentration at which the effect is half-maximal. By Emax is commonly meant the maximal effect, on the per cent scale that the assay sets. Regarding `COc1nccc2c1C(=O)N[C@H](C(=O)NCCc1cccc(-n3nccn3)c1)CC(=O)N(C)[C@@H](CC(C)C)C(=O)N1CCCC[C@@H]1C(=O)N[C@H](Cc1ccccc1)CO2` [Example 466, (7S,11S,17aR,20R)-N-(3-(2H-1,2,3-triazol-2-yl)phenethyl)-20-benzyl-11-isobutyl-4-methoxy-10-methyl-5,9,12,18-tetraoxo-5,6,7,8,9,10,11,12,15,16,17,17a,18,19,20,21-hexadecahydro-14H-dipyrido[2,1-f:3′,4′-p][1]oxa[4,7,10,14]tetraazacycloheptadecine-7-carboxamide], the EC50 was determined as 548 nM and the Emax stood at 328%.
On to `COc1nccc2c1C(=O)N[C@H](C(=O)NCCc1cccc(-n3nccn3)c1)CC(=O)N(C)[C@@H](CC(C)C)C(=O)N1CCCC[C@H]1C(=O)N[C@H](Cc1ccccc1)CO2` [Example 467, (7S,11S,17aS,20R)-N-(3-(2H-1,2,3-triazol-2-yl)phenethyl)-20-benzyl-11-isobutyl-4-methoxy-10-methyl-5,9,12,18-tetraoxo-5,6,7,8,9,10,11,12,15,16,17,17a,18,19,20,21-hexadecahydro-14H-dipyrido[2,1-f:3′,4′-p][1]oxa[4,7,10,14]tetraazacycloheptadecine-7-carboxamide], for which the EC50 stood at 936 nM and the Emax stood at 152%.
Turning to `COc1nccc2c1C(=O)N[C@H](C(=O)NCCc1ccc(-n3nccn3)cc1)CC(=O)N(C)[C@@H](CC(C)C)C(=O)N1CCCC[C@@H]1C(=O)N[C@H](Cc1ccccc1)CO2` [Example 468, (7S,11S,17aR,20R)-N-(4-(2H-1,2,3-triazol-2-yl)phenethyl)-20-benzyl-11-isobutyl-4-methoxy-10-methyl-5,9,12,18-tetraoxo-5,6,7,8,9,10,11,12,15,16,17,17a,18,19,20,21-hexadecahydro-14H-dipyrido[2,1-f:3′,4′-p][1]oxa[4,7,10,14]tetraazacycloheptadecine-7-carboxamide], the EC50 was found to be 504 nM and the Emax came to 361%.
In the case of `COc1cccc(CCNC(=O)[C@@H]2CC(=O)N(C)[C@@H](CC(C)C)C(=O)N3CCCC[C@@H]3C(=O)N[C@H](Cc3ccccc3)COc3nc4ccccn4c3C(=O)N2)c1` [Example 469, (7S,11S,22R,24aR)-22-benzyl-7-isobutyl-N-(3-methoxyphenethyl)-8-methyl-6,9,13,24-tetraoxo-1,3,4,6,7,8,9,10,11,12,13,21,22,23,24,24a-hexadecahydro-2H-pyrido[2,1-f]pyrido[2′,1′:2,3]imidazo[4,5-p][1]oxa[4,7,10,14]tetraazacycloheptadecine-11-carboxamide], the EC50 amounted to 381 nM and the Emax is 110%.
In the case of `Cc1cc(CCNC(=O)[C@@H]2CC(=O)N(C)[C@@H](CC(C)C)C(=O)N3CCCC[C@@H]3C(=O)N[C@H](Cc3ccccc3)COc3nc4ccccn4c3C(=O)N2)on1` [Example 470, (7S,11S,22R,24aR)-22-benzyl-7-isobutyl-8-methyl-N-(2-(3-methylisoxazol-5-yl)ethyl)-6,9,13,24-tetraoxo-1,3,4,6,7,8,9,10,11,12,13,21,22,23,24,24a-hexadecahydro-2H-pyrido[2,1-f]pyrido[2′,1′:2,3]imidazo[4,5-p][1]oxa[4,7,10,14]tetraazacycloheptadecine-11-carboxamide], the EC50 is 662 nM and the Emax is 169%.
For `COc1cccc(CCNC(=O)[C@@H]2CC(=O)N(C)[C@@H](CC(C)C)C(=O)N(C)C3(CC3)C(=O)N[C@H](Cc3ccccc3)COc3ccc4cccnc4c3C(=O)N2)c1` [Example 471, (9′R,15′S,19′S)-9′-benzyl-15′-isobutyl-N-(3-methoxyphenethyl)-13′,16′-dimethyl-11′,14′,17′,21′-tetraoxo-8′,9′,10′,11′,14′,15′,16′,17′,18′,19′,20′,21′-dodecahydro-13′H-spiro[cyclopropane-1,12′-[1]oxa[4,7,10,14]tetraazacycloheptadecino[17,16-h]quinoline]-19′-carboxamide], in that order: 981 nM and 278%.
For `CC(C)C[C@H]1C(=O)N2CCCC[C@@H]2C(=O)N[C@H](Cc2ccccc2)COc2ccc3ncccc3c2C(=O)N[C@H](C(=O)NCCc2ccc(-n3nccn3)cc2)CC(=O)N1C` [Example 472, (9S,13S,19aR,22R)-N-(4-(2H-1,2,3-triazol-2-yl)phenethyl)-22-benzyl-13-isobutyl-12-methyl-7,11,14,20-tetraoxo-7,8,9,10,11,12,13,14,17,18,19,19a,20,21,22,23-hexadecahydro-16H-pyrido[2′,1′:6,7][1]oxa[4,7,10,14]tetraazacycloheptadecino[16,17-f]quinoline-9-carboxamide], in that order: 284 nM and 239%.
For `CC(C)C[C@H]1C(=O)N2CCCC[C@H]2C(=O)N[C@H](Cc2ccccc2)COc2ccc3ncccc3c2C(=O)N[C@H](C(=O)NCCc2ccc(-n3nccn3)cc2)CC(=O)N1C` [Example 473, (9S,13S,19aS,22R)-N-(4-(2H-1,2,3-triazol-2-yl)phenethyl)-22-benzyl-13-isobutyl-12-methyl-7,11,14,20-tetraoxo-7,8,9,10,11,12,13,14,17,18,19,19a,20,21,22,23-hexadecahydro-16H-pyrido[2′,11:6,7][1]oxa[4,7,10,14]tetraazacycloheptadecino[16,17-f]quinoline-9-carboxamide], in that order: 585 nM and 119%.
Turning to `Cc1cc(CCNC(=O)[C@@H]2CC(=O)N(C)[C@@H](CC(C)C)C(=O)N3CCCC[C@@H]3C(=O)N[C@H](Cc3ccccc3)COc3ccc4ncccc4c3C(=O)N2)on1` [Example 474, (9S,13S,19aR,22R)-22-benzyl-13-isobutyl-12-methyl-N-(2-(3-methylisoxazol-5-yl)ethyl)-7,11,14,20-tetraoxo-7,8,9,10,11,12,13,14,17,18,19,19a,20,21,22,23-hexadecahydro-16H-pyrido[2′,11:6,7][1]oxa[4,7,10,14]tetraazacycloheptadecino[16,17-f]quinoline-9-carboxamide], the EC50 stood at 478 nM and the Emax came out at 359%.
For `Cc1cc(CCNC(=O)[C@@H]2CC(=O)N(C)[C@@H](CC(C)C)C(=O)N3CCN(S(=O)(=O)c4cccnc4)C[C@@H]3C(=O)N[C@H](Cc3ccccc3)COc3ccc4ccccc4c3C(=O)N2)on1` [Example 475, (4aR,7R,18S,22S)-7-benzyl-22-isobutyl-21-methyl-N-(2-(3-methylisoxazol-5-yl)ethyl)-5,16,20,23-tetraoxo-3-(pyridin-3-ylsulfonyl)-2,3,4,4a,5,6,7,8,16,17,18,19,20,21,22,23-hexadecahydro-1H-naphtho[1,2-p]pyrazino[2,1-f][1]oxa[4,7,10,14]tetraazacycloheptadecine-18-carboxamide], in that order: 992 nM and 314%.
Regarding `CC(C)C[C@H]1C(=O)N(C)C2(CC2)C(=O)N[C@H](Cc2ccccc2)COc2cnc3ccccc3c2C(=O)N[C@H](C(=O)NCCc2cc(C3CC3)no2)CC(=O)N1C` [Example 476, (3′S,7′S,13′R)-13′-benzyl-N-(2-(3-cyclopropylisoxazol-5-yl)ethyl)-7′-isobutyl-6′,9′-dimethyl-1′,5′,8′,11′-tetraoxo-2′,3′,4′,5′,6′,7′,8′,9′,11′,12′,13′,14′-dodecahydro-1′H-spiro[cyclopropane-1,10′-[1]oxa[4,7,10,14]tetraazacycloheptadecino[17,16-c]quinoline]-3′-carboxamide], the EC50 was 333 nM and the Emax is 344%.
With `COc1nccc2c1C(=O)N[C@H](C(=O)NCCc1cc(C)no1)CC(=O)N(C)[C@@H](CC(C)C)C(=O)N1CCCC[C@@H]1C(=O)N[C@H](Cc1ccccc1)CO2` [Example 477, (7S,11S,17aR,20R)-20-benzyl-11-isobutyl-4-methoxy-10-methyl-N-(2-(3-methylisoxazol-5-yl)ethyl)-5,9,12,18-tetraoxo-5,6,7,8,9,10,11,12,15,16,17,17a,18,19,20,21-hexadecahydro-14H-dipyrido[2,1-f:3′,4′-p][1]oxa[4,7,10,14]tetraazacycloheptadecine-7-carboxamide], the EC50 was found to be 754 nM and the Emax was found to be 327%.
For `COc1nccc2c1C(=O)N[C@H](C(=O)NCCc1c(F)cccc1F)CC(=O)N(C)[C@@H](CC(C)C)C(=O)N1CCCC[C@@H]1C(=O)N[C@H](Cc1ccccc1)CO2` [Example 478, (7S,11S,17aR,20R)-20-benzyl-N-(2,6-difluorophenethyl)-11-isobutyl-4-methoxy-10-methyl-5,9,12,18-tetraoxo-5,6,7,8,9,10,11,12,15,16,17,17a,18,19,20,21-hexadecahydro-14H-dipyrido[2,1-f:3′,4′-p][1]oxa[4,7,10,14]tetraazacycloheptadecine-7-carboxamide], in that order: 168 nM and 337%.
For `COc1cncc(S(=O)(=O)N2CCN3C(=O)[C@H](CC(C)C)N(C)C(=O)C[C@@H](C(=O)NCCc4cc(C)no4)NC(=O)c4c(ccc5ccccc45)OC[C@@H](Cc4ccccc4)NC(=O)[C@H]3C2)c1` [Example 479, (4aR,7R,18S,22S)-7-benzyl-22-isobutyl-3-((5-methoxypyridin-3-yl)sulfonyl)-21-methyl-N-(2-(3-methylisoxazol-5-yl)ethyl)-5,16,20,23-tetraoxo-2,3,4,4a,5,6,7,8,16,17,18,19,20,21,22,23-hexadecahydro-1H-naphtho[1,2-p]pyrazino[2,1-f][1]oxa[4,7,10,14]tetraazacycloheptadecine-18-carboxamide], the 50% effective concentration (EC50) was 480 nM and the Emax came to 253%.
Turning to `Cc1cc(CCNC(=O)[C@@H]2CC(=O)N(C)[C@@H](CC(C)C)C(=O)N3CCCC[C@@H]3C(=O)N[C@H](Cc3ccccc3)COc3cnc4ccc(F)cc4c3C(=O)N2)on1` [Example 480, (9S,13S,19aR,22R)-22-benzyl-5-fluoro-13-isobutyl-12-methyl-N-(2-(3-methylisoxazol-5-yl)ethyl)-7,11,14,20-tetraoxo-7,8,9,10,11,12,13,14,17,18,19,19a,20,21,22,23-hexadecahydro-16H-pyrido[2′,11:6,7][1]oxa[4,7,10,14]tetraazacycloheptadecino[17,16-c]quinoline-9-carboxamide], the EC50 was 201 nM and the Emax turned out to be 276%.
